These results are taken from patent US10329324B2 (viDA Therapeutics Inc., priority 2013, dated 2019).

One series addresses GzmB (Homo sapiens, UniProt P10144). In words: Inhibition of fibronectin cleavage by GzmB. The format is biochemical. As to conditions: 20 nM granzyme B, labeled fibronectin; for inhibition at 0.62 µM: 0.62 uM inhibitor, read-out: Percent Inhibition at Inhibitor Concentration 0.62 uM; for inhibition at 5.56 µM: 5.56 uM inhibitor, read-out: Percent Inhibition at Inhibitor Concentration 5.56 uM; for inhibition at 50 µM: 50 uM inhibitor, read-out: Percent Inhibition at Inhibitor Concentration 50 uM. The protocol:
Black, 96 well high-binding assay plates (Griener Bio-one) were treated overnight at 4° C. with 40 uL of 8 ug/mL Hilyte Fluor 488 labeled Fibronectin (Cytoskeleton, Inc). After fibronectin coating, plates were washed 3 times in buffer (20 mM Tris-HCl, pH 7.4, 20 mM NaCl) then once with granzyme B assay buffer (50 mM HEPES, pH 7.5, 0.1% CHAPS). After washing, 50 uL of granzyme B assay buffer was added to each fibronectin-coated well. In a separate non-binding 96 well assay plate 5 uL of 20× inhibitor serial dilution stocks were added to 45 uL of 2.22×GzmB mix to establish inhibition (enzyme/inhibitor mixes were all prepared in granzyme B assay buffer and were incubated first at room temperature for 20 minutes, then at 30° C. for another 10 minutes). After incubation, 50 uL of this 2× enzyme/inhibitor mix was added to the corresponding coated well to initiate fibronectin cleavage (20 nM final granzyme B concentration, 8-point inhibitor dilution series starting at 50 uM). The assay was conducted at 30° C. in the TECAN plate reader (TECAN INFINITE® M1000 Pro), which was programmed to monitor the kinetic fluorescence polarization signal (filter set Ex/Em 470 nm/527 nm) with readings taken every minute, for 1 hour. Proteolytic activity was evaluated as the rate of fluorescence enhancement in the parallel emission over the linear range of the reaction. % Inhibition values were calculated from assay controls and the resulting date is shown in Table 8.

A further series deals with T1, human Granzyme B (hGzmB) (Homo sapiens, UniProt P10144).
T1 construct: purchased Froelich Lab, Northshore University Health Systems Research Institute, Evanston, Ill., USA
The series is described as follows: Human Granzyme B enzymatic inhibition assay (fluorogenic, kinetic). It is filed as biochemical. The note with it: activity codes, Table 7; read-out: IC50 Activity Range. Summed up:
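Human Granzyme B preincubated with compound for 30 min total (5 min shaking, 20 min bench, then reaction temperature). Fluorogenic substrate added and read kinetically, 25 cycles at 1-min intervals. Percent inhibition at one or two concentrations or 8–12-point 3-fold dose response from 20 uM, replicates, with IC50 by non-linear regression.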

The nature of series [1]: Kinetic solubility determination in PBS. It is filed as physicochemical. As to conditions: phosphate buffered saline (PBS 1×), 21 °C, pH 7.4, aqueous buffer, kinetic from dmso stock, PBS 1X pH 7.4, 2.0% DMSO, 24 hour incubation at ambient temperature. Summed up:
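DMSO stocks were diluted into PBS (1×) pH 7.4 to 2.0% final DMSO and a maximum theoretical concentration of typically 200 μM. After 24 hour incubation at ambient temperature (20.5-21.7° C.), samples were vacuum filtered. The filtrate was quantified by chemiluminescent nitrogen detection against a nitrogen calibration curve, with background-corrected values given in μM and μg/mL.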

Where [2] appears, read: read-out: Solubility in aqueous PBS Buffer (1X, pH 7.4).
[3] abbreviates: read-out: Solubility in aqueous PBS Buffer (1X, pH 7.4), ug/mL.

Structures are written as SMILES. Counter-ions that a name gives are not always drawn. Like-named read-outs stand apart in the source and are kept apart here.

T1 sequence (P10144 21-247): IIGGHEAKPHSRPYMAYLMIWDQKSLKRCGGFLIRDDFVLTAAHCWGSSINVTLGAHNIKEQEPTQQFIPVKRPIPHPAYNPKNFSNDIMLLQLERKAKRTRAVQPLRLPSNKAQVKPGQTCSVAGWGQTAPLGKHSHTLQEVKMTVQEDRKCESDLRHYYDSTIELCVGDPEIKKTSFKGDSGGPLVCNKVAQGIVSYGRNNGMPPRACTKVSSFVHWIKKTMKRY
Sequence of GzmB (P10144 21-247): as above

With `CC[C@H](C)[C@H](NC(=O)CCC(=O)O)C(=O)NCC(=O)N1c2ccccc2C[C@H]1C(=O)NCc1nn[nH]n1` [Example A13, 3-{[(1S,2S)-2-Methyl-1-({2-Oxo-2-[(2S)-2-[(2H-1,2,3,4-Tetrazol-5-Ylmethyl)Carbamoyl]-2,3-Dihydro-1H-Indol-1-Yl]Ethyl}Carbamoyl)Butyl]Carbamoyl}Propanoic Acid], at GzmB, the inhibition at 0.62 µM is 11%, the inhibition at 5.56 µM came out at 52% and the inhibition at 50 µM was determined as 82%. The IC50 (commonly the point on the concentration scale where inhibition reaches its midpoint) on human Granzyme B (hGzmB) is below 100 nM. In addition, the solubility at 24 h in series [1] (setting [2]) is above 750 µM. The solubility at 24 h in series [1] (setting [3]) was above 386 µg/mL.
`CC[C@H](C)[C@H](NC(=O)Cc1csc2ccccc12)C(=O)NCC(=O)N1c2ccccc2C[C@H]1C(=O)NCc1nn[nH]n1` [Example A27, (2S)-1-{2-[(2S,3S)-2-[2-(1-Benzothiophen-3-Yl)Acetamido]-3-Methylpentanamido]Acetyl}-N-(2H-1,2,3,4-Tetrazol-5-Ylmethyl)-2,3-Dihydro-1H-Indole-2-Carboxamide]: on GzmB, the inhibition at 0.62 µM worked out at 57%, the inhibition at 5.56 µM turned out to be 96% and the inhibition at 50 µM was determined as 102%. On human Granzyme B (hGzmB), the IC50 is below 100 nM. Moreover, the solubility at 24 h in series [1] (setting [2]) was 53 µM. The solubility at 24 h in series [1] (setting [3]) stood at 31 µg/mL.
For `CC[C@H](C)[C@H](NC(=O)Cc1nn[nH]n1)C(=O)NCC(=O)N1c2ccccc2C[C@H]1C(=O)NCc1nn[nH]n1` [Example A28, (2S)-1-{2-[(2S,3S)-3-Methyl-2-[2-(2H-1,2,3,4-Tetrazol-5-Yl)Acetamido]Pentanamido]Acetyl}-N-(2H-1,2,3,4-Tetrazol-5-Ylmethyl)-2,3-Dihydro-1H-Indole-2-Carboxamide], on GzmB, the inhibition at 0.62 µM came out at 45%, the inhibition at 5.56 µM was found to be 79% and the inhibition at 50 µM was 98%. Moreover, the IC50 on human Granzyme B (hGzmB) is below 100 nM. Also, the solubility at 24 h in series [1] (setting [2]) is above 750 µM. The solubility at 24 h in series [1] (setting [3]) is above 393 µg/mL.
For the compound `CC[C@H](C)[C@H](NC(=O)Cc1ccccc1)C(=O)NCC(=O)N1c2ccc(N)cc2C[C@H]1C(=O)NCc1nn[nH]n1` [Example C32, (2S)-5-Amino-1-{2-[(2S,3S)-3-Methyl-2-(2-Phenylacetamido)Pentanamido]Acetyl}-N-(2H-1,2,3,4-Tetrazol-5-Ylmethyl)-2,3-Dihydro-1H-Indole-2-Carboxamide Hydrochloride], at human Granzyme B (hGzmB), the half-maximal inhibitory concentration (IC50) was 100 to 1000 nM. The solubility at 24 h in series [1] (setting [2]) is above 750 µM; in series [1] (setting [3]), above 438 µg/mL.
